According to patent US12570642B2, “GLP-IR modulating compounds” (Gilead Sciences, Inc., priority 2021, dated 2026):

Molecular target: GLP-1R (Homo sapiens, UniProt P43220)
Test: GLP-1R Activation - cAMP Assay
Assay type: cell-based
Conditions: cAMP increase in CHO cells stably expressing GLP-1R; each compound run on one of the two cAMP assays (Assay 1 or Assay 2, not specified)
In short: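 cAMP rise read by HTRF after 30 min agonist exposure (10-point titration, 37 °C) in HBSS/20 mM Hepes/0.1% BSA, following 1 h pre-incubation. Cells: stable GLP-1R CHO line, 1,000/well, seeded overnight. Sigmoidal fit of response vs log concentration gives EC50.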

Sequence of GLP-1R (P43220 24-463): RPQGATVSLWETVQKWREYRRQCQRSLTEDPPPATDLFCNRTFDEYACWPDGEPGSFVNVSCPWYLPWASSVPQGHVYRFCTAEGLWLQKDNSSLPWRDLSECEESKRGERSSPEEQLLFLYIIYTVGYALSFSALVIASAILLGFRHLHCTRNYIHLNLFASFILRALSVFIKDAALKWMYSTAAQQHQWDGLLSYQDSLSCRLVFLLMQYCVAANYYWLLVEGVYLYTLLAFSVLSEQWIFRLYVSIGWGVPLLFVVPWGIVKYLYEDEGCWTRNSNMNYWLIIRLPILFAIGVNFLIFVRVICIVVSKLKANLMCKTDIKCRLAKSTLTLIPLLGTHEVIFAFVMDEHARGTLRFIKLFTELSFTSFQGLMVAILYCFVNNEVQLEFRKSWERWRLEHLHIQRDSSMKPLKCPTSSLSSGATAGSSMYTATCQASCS

SMILES	EC50 [nM]
COCCn1c(Cc2cc(F)c(-c3cccc(OCc4ccc(-c5cc(C(F)(F)F)nn5C)cc4F)n3)cc2F)nc2ccc(C(=O)O)cc21 [Example 102, 2-(2,5-difluoro-4-(6-((2-fluoro-4-(1-methyl-3-(trifluoromethyl)-1H-pyrazol-5-yl)benzyl)oxy)pyridin-2-yl)benzyl)-1-(2-methoxyethyl)-1H-benzo[d]imidazole-6-carboxylic Acid]	22.8
N#Cc1ccc(COc2cccc(-c3cc(F)c(Cc4nc5ccc(C(=O)O)cc5n4C4CCC45CC5)cc3F)n2)c(F)c1 (stereo not shown) [Example 64, 2-(4-(6-((4-cyano-2-fluorobenzyl)oxy)pyridin-2-yl)-2,5-difluorobenzyl)-1-(spiro[2.3]hexan-4-yl)-1H-benzo[d]imidazole-6-carboxylic Acid]	1.28
N#Cc1ccc(COc2cccc(-c3ccc(Cc4nc5ccc(C(=O)O)cc5n4[C@H]4CCOC4)c(F)c3)n2)c(F)c1 [Example 210, (S)-2-(4-(6-((4-cyano-2-fluorobenzyl)oxy)pyridin-2-yl)-2-fluorobenzyl)-1-(tetrahydrofuran-3-yl)-1H-benzo[d]imidazole-6-carboxylic acid]	14.1
COC[C@H]1COC[C@H]1n1c(Cc2cc(F)c(-c3ccc(F)c(OCc4ccc(C(F)(F)F)cc4)n3)cc2F)nc2ccc(C(=O)O)cc21 [Example 538, 2-(2,5-difluoro-4-(5-fluoro-6-((4-(trifluoromethyl)benzyl)oxy)pyridin-2-yl)benzyl)-1-((3S,4S)-4-(methoxymethyl)tetrahydrofuran-3-yl)-1H-benzo[d]imidazole-6-carboxylic acid]	0.109
CC1(C)COC[C@H]1n1c(Cn2cc(F)c(-c3ccc(F)c(OCc4ccc(Cl)cc4)n3)cc2=O)nc2ccc(C(=O)O)cc21 [Example 300, (S)-2-((6-((4-chlorobenzyl)oxy)-5,5′-difluoro-2′-oxo-[2,4′-bipyridin]-1′(2′H)-yl)methyl)-1-(4,4-dimethyltetrahydrofuran-3-yl)-1H-benzo[d]imidazole-6-carboxylic acid]	0.268
CC1(C)COC[C@H]1n1c(Cc2cc(F)c(-c3cccc(OCc4ccc(F)c(F)c4)n3)cc2F)nc2ccc(C(=O)O)cc21 [Example 457, (S)-2-(4-(6-((3,4-difluorobenzyl)oxy)pyridin-2-yl)-2,5-difluorobenzyl)-1-(4,4-dimethyltetrahydrofuran-3-yl)-1H-benzo[d]imidazole-6-carboxylic acid]	0.157
CC1(C)COC[C@H]1n1c(Cc2cc(F)c(-c3cccc(OCc4ccc(-c5cnn(C(F)F)c5)cc4F)n3)cc2F)nc2ccc(C(=O)O)cc21 [Example 443, (S)-2-(4-(6-((4-(1-(difluoromethyl)-1H-pyrazol-4-yl)-2-fluorobenzyl)oxy)pyridin-2-yl)-2,5-difluorobenzyl)-1-(4,4-dimethyltetrahydrofuran-3-yl)-1H-benzo[d]imidazole-6-carboxylic acid]	0.21
COC(=O)N1Cc2ccc(COc3cccc(-c4cc(F)c(Cc5nc6c(F)cc(C(=O)O)cc6n5C[C@@H]5CCO5)cc4F)n3)cc2C1 [Example 349, 2-[[2,5-difluoro-4-[6-[(2-methoxycarbonylisoindolin-5-yl)methoxy]-2-pyridyl]phenyl]methyl]-7-fluoro-3-[[(2S)-oxetan-2-yl]methyl]benzimidazole-5-carboxylic acid]	0.042
CNC(=O)[C@@H]1COC[C@@H]1n1c(Cc2cc(F)c(-c3cccc(OCc4ccc(C#N)cc4F)n3)cc2F)nc2ccc(C(=O)O)cc21 (racemic) [Example 75, 2-(4-(6-((4-cyano-2-fluorobenzyl)oxy)pyridin-2-yl)-2,5-difluorobenzyl)-1-((3R,4S)-4-(methylcarbamoyl)tetrahydrofuran-3-yl)-1H-benzo[d]imidazole-6-carboxylic Acid]	15.6
CC1(C)COC[C@H]1n1c(Cc2c(F)cc(-c3cccc(OCc4ccc(Cl)cc4F)n3)cc2F)nc2c(F)cc(C(=O)O)cc21 [Example 305, (S)-2-(4-(6-((4-chloro-2-fluorobenzyl)oxy)pyridin-2-yl)-2,6-difluorobenzyl)-1-(4,4-dimethyltetrahydrofuran-3-yl)-4-fluoro-1H-benzo[d]imidazole-6-carboxylic acid]	0.125

Further compounds by falling EC50, results first:

EC50 [nM]	SMILES
1.97	COCCn1c(Cc2cc(F)c(-c3cccc(OCc4cnc(-c5cn(C)nn5)cn4)n3)cc2F)nc2ccc(C(=O)O)cc21 [Example 37, 2-(2,5-difluoro-4-(6-((5-(1-methyl-1H-1,2,3-triazol-4-yl)pyrazin-2-yl)methoxy)pyridin-2-yl)benzyl)-1-(2-methoxyethyl)-1H-benzo[d]imidazole-6-carboxylic Acid]
1.12	N#Cc1ccc(COc2cccc(-c3cc(F)c(Cc4nc5ccc(C(=O)O)cc5n4[C@H]4CCOC4)cc3F)n2)c(F)c1 [Example 1, (S)-2-(4-(6-((4-cyano-2-fluorobenzyl)oxy)pyridin-2-yl)-2,5-difluorobenzyl)-1-(tetrahydrofuran-3-yl)-1H-benzo[d]imidazole-6-carboxylic acid]
0.764	COc1cc(Cl)ncc1COc1cccc(-c2cc(F)c(Cc3nc4ccc(C(=O)O)cc4n3[C@H]3COCC3(C)C)cc2F)n1 (single isomer, unassigned) [Example 290B]
0.444	N#Cc1ccc(COc2cccc(-c3cc(F)c(Cc4nc5ccc(C(=O)O)cc5n4[C@H]4COC[C@H]4C4CC4)cc3F)n2)c(F)c1 [Example 192, 2-(4-(6-((4-cyano-2-fluorobenzyl)oxy)pyridin-2-yl)-2,5-difluorobenzyl)-1-((3R,4S)-4-cyclopropyltetrahydrofuran-3-yl)-1H-benzo[d]imidazole-6-carboxylic acid]
0.274	CC1(C)COC[C@H]1n1c(Cc2cc(F)c(-c3cccc(OCc4ccc(Cl)cc4)n3)cc2F)nc2c(F)cc(C(=O)O)cc21 [Example 367, (S)-2-(4-(6-((4-chlorobenzyl)oxy)pyridin-2-yl)-2,5-difluorobenzyl)-1-(4,4-dimethyltetrahydrofuran-3-yl)-4-fluoro-1H-benzo[d]imidazole-6-carboxylic acid]
0.209	CC1(C)COC[C@H]1n1c(Cc2cc(F)c(-c3ccc(Cl)c(OCc4ccc(Cl)cc4)n3)cc2F)nc2ccc(C(=O)O)cc21 [Example 433, (S)-2-(4-(5-chloro-6-((4-chlorobenzyl)oxy)pyridin-2-yl)-2,5-difluorobenzyl)-1-(4,4-dimethyltetrahydrofuran-3-yl)-1H-benzo[d]imidazole-6-carboxylic acid]
0.208	Cn1nnc2ccc(COc3cccc(-c4cc(F)c(Cc5nc6ccc(C(=O)O)cc6n5[C@@H]5COCC5(C)C)cc4F)n3)cc21 [Example 513, (S)-2-(2,5-difluoro-4-(6-((1-methyl-1H-benzo[d][1,2,3]triazol-6-yl)methoxy)pyridin-2-yl)benzyl)-1-(4,4-dimethyltetrahydrofuran-3-yl)-1H-benzo[d]imidazole-6-carboxylic acid]
0.192	O=C(O)c1ccc2nc(Cc3cc(F)c(-c4cccc(OCc5cnc(-n6ccnn6)cc5Cl)n4)cc3F)n(CCOC(F)F)c2c1 [Example 560, 2-(4-(6-((4-chloro-6-(1H-1,2,3-triazol-1-yl)pyridin-3-yl)methoxy)pyridin-2-yl)-2,5-difluorobenzyl)-1-(2-(difluoromethoxy)ethyl)-1H-benzo[d]imidazole-6-carboxylic acid]
0.189	Cc1cc(Cc2nc3ccc(C(=O)O)cc3n2[C@@H]2COCC2(C)C)c(F)cc1-c1ccnc(OCc2ccc(Cl)cc2)n1 [Example 219, (S)-2-(4-(2-((4-chlorobenzyl)oxy)pyrimidin-4-yl)-2-fluoro-5-methylbenzyl)-1-(4,4-dimethyltetrahydrofuran-3-yl)-1H-benzo[d]imidazole-6-carboxylic acid]
0.083	CC1(C)COC[C@H]1n1c(Cc2cc(F)c(-c3ccnc(OCc4ccc(Cl)cc4F)n3)cc2F)nc2ccc(C(=O)O)cc21 [Example 121, (S)-2-(4-(2-((4-chloro-2-fluorobenzyl)oxy)pyrimidin-4-yl)-2,5-difluorobenzyl)-1-(4,4-dimethyltetrahydrofuran-3-yl)-1H-benzo[d]imidazole-6-carboxylic Acid]
0.064	Cc1cc(Cc2nc3ccc(C(=O)O)cc3n2[C@@H]2COCC2(C)C)c(F)cc1-c1cccc(OCc2ccc(C#N)cc2)n1 [Example 179, (S)-2-(4-(6-((4-cyanobenzyl)oxy)pyridin-2-yl)-2-fluoro-5-methylbenzyl)-1-(4,4-dimethyltetrahydrofuran-3-yl)-1H-benzo[d]imidazole-6-carboxylic Acid]
0.049	CC1(C)COC[C@H]1n1c(Cc2cc(F)c(-c3ccnc(OCc4ccc(Cl)cc4)n3)cc2F)nc2ccc(C(=O)O)cc21 [Example 231, (S)-2-(4-(2-((4-chlorobenzyl)oxy)pyrimidin-4-yl)-2,5-difluorobenzyl)-1-(4,4-dimethyltetrahydrofuran-3-yl)-1H-benzo[d]imidazole-6-carboxylic acid]
0.049	COc1cc(Cl)ncc1COc1nc(-c2ccc(Cc3nc4c(F)cc(C(=O)O)cc4n3[C@@H]3COCC3(C)C)c(F)c2)ccc1F [Example 324, (S)-2-(4-(6-((6-chloro-4-methoxypyridin-3-yl)methoxy)-5-fluoropyridin-2-yl)-2-fluorobenzyl)-1-(4,4-dimethyltetrahydrofuran-3-yl)-4-fluoro-1H-benzo[d]imidazole-6-carboxylic acid]
0.022	CC1(C)COC[C@H]1n1c(Cc2cc(F)c(-c3ccc(F)c(OCc4cc(F)c(C#N)cc4F)n3)cc2F)nc2c(F)cc(C(=O)O)cc21 [Example 483, (S)-2-(4-(6-((4-cyano-2,5-difluorobenzyl)oxy)-5-fluoropyridin-2-yl)-2,5-difluorobenzyl)-1-(4,4-dimethyltetrahydrofuran-3-yl)-4-fluoro-1H-benzo[d]imidazole-6-carboxylic acid]
0.012	COc1cc(Cl)ncc1COc1nc(-c2cc(F)c(Cc3nc4ccc(C(=O)O)cc4n3[C@@H]3COCC3(C)C)cc2F)ccc1F [Example 342, (S)-2-(4-(6-((6-chloro-4-methoxypyridin-3-yl)methoxy)-5-fluoropyridin-2-yl)-2,5-difluorobenzyl)-1-(4,4-dimethyltetrahydrofuran-3-yl)-1H-benzo[d]imidazole-6-carboxylic acid]
